Reference: patent US8808702B2, “Sulfide, sulfoxide and sulfone chalcone analogues, derivatives thereof and therapeutic uses thereof” (Temple University-of the Commonwealth System of Higher …, priority 2006, dated 2014)
Like-named read-outs stand apart in the source and are kept apart here.

Columns and labels:
DU145 (prostate cancer) = test: Effect of compounds on tumor cell lines (assay of Latham et al.), DU145; format: cell-based; settings: DU145 cells, read-out: DU 145 potency (IC50)
Summary of the method: (§1)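 K562 or DU145 cells plated at 2.5×10^4 cells/well, treated 24 h later with compound in DMSO at 1 μM to 100 μM (0.1 μM to 100 μM for one compound). Activity judged by microscopic observation after 96 h; where needed, viable cells counted by trypan blue exclusion.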

[1] = test system: K562 (chronic myelogenous leukaemia); test: Effect of compounds on tumor cell lines (assay of Latham et al.), K562; format: cell-based; settings: K562 cells, read-out: K 562 potency (IC50)
Summary of the method: as §1

[2] = 96 hours after treatment, 1 μM to 100 μM
[3] = Table 3, examined 96 hours after treatment, 1 μM to 100 μM in DMSO
[4] = Table 1, examined 96 hours after treatment, 1 μM to 100 μM in DMSO

IC50 (DU145 (prostate cancer); [2]) [µM]	IC50 [1, 2] [µM]	SMILES	other results
10 to 25	1 to 10	CC(=O)Nc1ccc(/C=C(/SCc2ccc(F)cc2)C(=O)c2ccc(C(=O)O)cc2)cc1[N+](=O)[O-] [Example 332]	–
1 to 10	≤ 1	O=C(O)c1ccc(C(=O)C(=Cc2ccc(Cl)c([N+](=O)[O-])c2)SCc2ccccc2F)cc1 [Example 304]	–
10 to 25	1 to 10	Cc1ccc(CSC(=Cc2ccccc2F)C(=O)c2ccc(Br)cc2)cc1 [Example 277]	–
10 to 25	1 to 10	COc1ccc(C=C(SCc2ccc(F)cc2)C(=O)c2ccc(C(=O)O)cc2)cc1O [Example 244]	–
50 to 100	1 to 10	CCOc1ccc(C=C(SCc2ccc(F)cc2)C(=O)c2ccc(Br)cc2)cc1OC [Example 257]	–
1 to 10	10 to 25	COc1ccccc1C=C(SCc1ccc(Cl)cc1)C(=O)c1ccc(Br)cc1 [Example 198]	–
1 to 10	1 to 10	O=C(C(=Cc1ccc([N+](=O)[O-])cc1)SCc1ccc(Br)cc1)c1ccc(Br)cc1 [Example 320]	–
50 to 100	50 to 100	Cc1ccc(CSC(=Cc2ccc(F)cc2C(F)(F)F)C(=O)c2ccc(Cl)cc2)cc1 [Example 290]	–
1 to 10	1 to 10	CC1=CC(=O)C(C)=C(C(C)(C)CC(=O)Oc2ccc(C(=O)/C(=C\c3ccc(F)c([N+](=O)[O-])c3)SCc3ccc(F)cc3)cc2)C1=O [Example 339]	–

More lines, now with the values behind:

SMILES	IC50 (DU145 (prostate cancer); [2]) [µM]	IC50 [1, 2] [µM]	other results
O=C(O)c1ccc(C(=O)C(=Cc2ccc(Cl)c([N+](=O)[O-])c2)SCc2ccc(Cl)cc2)cc1 [Example 216]	1 to 10	≤ 1	–
O=C(O)c1ccc(C(=O)/C(=C\c2ccc(F)c([N+](=O)[O-])c2)SCc2nc3ccc(Br)cc3[nH]2)cc1 [Example 352]	1 to 10	1 to 10	–
COc1cc(OC)c(/C=C(\C(=O)c2ccc(Cl)cc2)[S+]([O-])Cc2ccccc2Cl)c(OC)c1 (stereo not shown) [Example 354]	–	–	IC50 (DU145 (prostate cancer); [3]): 10 to 25 µM; IC50 [1, 3]: 50 to 100 µM
COc1ccccc1C=C(Sc1ccc(C)cc1)C(=O)c1ccc(Cl)cc1 [Example 75]	–	–	IC50 (DU145 (prostate cancer); [4]): 25 to 50 µM; IC50 [1, 4]: 10 to 25 µM
O=C(C(=Cc1ccccc1OCc1ccccc1)Sc1ccc(F)cc1)c1ccc(Cl)cc1 [Example 55]	–	–	IC50 (DU145 (prostate cancer); [4]): 1 to 10 µM; IC50 [1, 4]: 1 to 10 µM
O=C(/C(=C\c1ccc(F)cc1C(F)(F)F)[S+]([O-])Cc1ccc(Cl)cc1)c1ccc(Cl)cc1 (stereo not shown) [Example 355]	–	–	IC50 (DU145 (prostate cancer); [3]): 50 to 100 µM; IC50 [1, 3]: 50 to 100 µM
COc1cc(OC)c(C=C(SCc2ccccc2Cl)C(=O)c2ccc(Cl)cc2)c(OC)c1 [Example 126]	50 to 100	10 to 25	–
Cc1ccc(SC(=Cc2ccc(Oc3ccccc3)cc2)C(=O)c2ccc(Br)cc2)cc1 [Example 103]	–	–	IC50 (DU145 (prostate cancer); [4]): 1 to 10 µM; IC50 [1, 4]: 10 to 25 µM
Cc1ccc(CSC(=Cc2ccc(Br)cc2)C(=O)c2ccc(Cl)cc2)cc1 [Example 286]	10 to 25	1 to 10	–
CN(C)c1ccc(C=C(SCc2ccc(Cl)c(Cl)c2)C(=O)c2ccc(Cl)cc2)cc1 [Example 142]	50 to 100	50 to 100	–
O=C(/C(=C\c1ccc(F)c([N+](=O)[O-])c1)SCc1ccc(F)cc1)c1ccccc1 [Example 344]	1 to 10	≤ 1	–
O=C(C(=Cc1cc(Cl)c(O)c(Cl)c1)SCc1ccc(Br)cc1)c1ccc(Br)cc1 [Example 148]	10 to 25	10 to 25	–
O=C(/C(=C\c1cc(Br)c(O)c(Br)c1)S(=O)(=O)Cc1ccc(Br)cc1)c1ccc(Br)cc1 [Example 368]	–	–	IC50 (DU145 (prostate cancer); Homo sapiens, DU-145, Table 4, examined 96 hours after treatment, 1 μM to 100 μM in DMSO): 25 to 50 µM; IC50 ([1]; Homo sapiens, Table 4, examined 96 hours after treatment, 1 μM to 100 μM in DMSO): 25 to 50 µM
O=C(C(=Cc1ccc(O)c([N+](=O)[O-])c1)Sc1ccccc1Br)c1ccc(Cl)cc1 [Example 11]	–	–	IC50 (DU145 (prostate cancer); [4]): 25 to 50 µM; IC50 [1, 4]: 10 to 25 µM
Cc1ccc(SC(=Cc2c(O)cc(O)cc2O)C(=O)c2ccc(Cl)cc2)cc1 [Example 68]	–	–	IC50 (DU145 (prostate cancer); [4]): > 100 µM; IC50 [1, 4]: > 100 µM
CSc1ccc(C=C(SCc2ccc(C)cc2)C(=O)c2ccc(Cl)cc2)cc1 [Example 294]	25 to 50	10 to 25	–
O=C(C(=Cc1ccc(OCc2ccccc2)cc1)SCc1cccc(Cl)c1)c1ccc(Br)cc1 [Example 146]	1 to 10	1 to 10	–
